For orientation: IC50 means the point on the concentration scale where inhibition reaches its midpoint.

Where only a bound is given, the exact number is not on record here.

The source of these data is patent US20190161516A1, “PROTEASOME INHIBITORS” (University of Kentucky Research Foundation, priority 2017, published 2019).

Assay [1] has as its system Chymotrypsin-like activity (β5/β5i). Description: Proteasome inhibitory activity, subunit-specific cell lysate IC50, chymotrypsin-like activity. The format is biochemical.
For assay [2], the system named is APPsw transgenic mouse (Tg2576) and LPS-induced mice (ICR strain). Description: Morris water maze test in AD mouse models. The format is in vivo. The conditions noted are these: FIG. 12A-12D. As to the method: These two compounds were used to investigate the impacts of LMP2 inhibition on cognitive deficits in two animal models of human Alzheimer's disease (AD). In these AD models, AD develops by Aβ deposition (APPsw transgenic mouse) or lipopolysaccharide (LPS)-induced neuroinflammation. For the APPsw transgenic model, also known as Tg2576, 10-month old APPsw mice were treated i.p. with LMP2 inhibitors twice a week for 3 weeks. […] Once treatments were finished, Morris water maze test was performed. All mice were trained for three times a day for 5 days before the test. The escape latency and distance traveled were recorded on a daily-basis over a 5-day period. […] This supports that the efficacy of LMP2 inhibitors is mediated through LMP2 inhibition. One day after the completion of Morris water maze test, the ability of mouse to maintain memory was evaluated by probe trials. […] Sequentially, a step-through latency test was performed a day after the probe trial. […]
The learning trials were conducted over 5 days, with 4 trials per day, with three randomized starting points. […] Swimming pattern of each mouse was monitored and recorded by a camera mounted above the center of the pool, and the escape latency, escape distance and swimming speed were assessed by the SMART-LD program (Panlab, Spain). […]

For assay [3], the system named is Aβ deposition in APPsw mouse brain. Description: Aβ in hippocampal tissues by ELISA and Thioflavin T staining. In kind it is in vivo. The conditions noted are these: versus APPsw control, FIG. 9. The text has this:
Given the data showing improved learning and memory of LMP2 inhibitor-treated mice and the role of Aβ deposition in memory dysfunction, we suspected that LMP2 inhibitors promote Aβ clearance in the brain of APPsw mice. To test this, we measured the expression levels of Aβ in hippocampal tissues isolated from the brains of APPsw mouse, using a ELISA-based assay and Thioflavin T (ThT) staining. […] Taken together, it appears that LMP2 inhibitors exert its anti-AD efficacy in these animal models independent of Aβ deposition. […] As a result, tau protein has become a prominent target for developing disease-modifying drugs. Given this, we wondered whether LMP2 inhibitors could block tau aggregation. To test this, we used HEK293-tau-BiFC cells to monitor the impacts of LMP2 inhibitors on tau aggregation.
Aβ1-42 levels were determined using specific ELISA Kit (Cusabio Biotech Co., Ltd., Wilmington, Del., USA). Experiments were performed according to each manufacturer's instructions. In brief, samples and standards were added into the pre-coated plate and incubated for 2 hours at 37° C. […] The absorbance was measured at 450 nm using a microplate reader (Sunrise™, TECAN, Switzerland) after adding stop solution.
Frozen brain tissues were cut into 30 μm sections by using cryostat microtome (Leica CM1850; Leica Microsystems). […] The Thioflavin T staining was examined by using a fluorescence microscope.

For assay [4], the system named is neuronal tissues from the brains of APPsw mice. Description: Cresyl violet staining of neuronal tissues. In kind it is in vivo. Conditions: APPsw mouse model, FIG. 10. The text has this: Since LMP2 inhibitors had no effects on Aβ or tau aggregation, we wondered if these compounds are simply protecting neurons from cell death caused by Aβ or LPS. To examine this, we performed Cresyl violet staining experiments on neuronal tissues isolated from the brains of APPsw mice.
Frozen brain tissues were cut into 30 μm sections by using cryostat microtome (Leica CM1850; Leica Microsystems, Korea). The pieces of brain were thoroughly washed with PBS to remove the excess fixative agent, and then transferred to gelatin coated slices and stained with 0.1% Cresyl violet (2-5 minutes) to identify cortical layers and cytoarchitectural features of isocortical region. Next, the sections were washed with distill water and dehydrated by using ascending grades of ethanol (50%, 70%, 90%, and 100%) for 2 min in each grade followed by a 1-min immersion in a 1:1 mixture of absolute alcohol and xylene. The sections were then rinsed with xylene for 5-10 min and mounted with mounting medium (CYTOSEAL™ XYL; Thermo Scientific, USA). The tissue was photographed (100×) in the same areas.

Another assay has as its system COX-2. Description: COX-2 expression by immunohistochemical analysis of hippocampal tissues. In kind it is in vivo. The conditions noted are these: hippocampal tissues from APPsw mouse, FIG. 11A right panel. The protocol: To directly verify the role of LMP2 in neuroinflammation pathways, we measured the expression of COX-2 by immunohistochemical analysis of hippocampal tissues from APPsw mouse.
Frozen tissues were cut into 30 μm thick sections and stored free floating in cryoprotectant solution (30% ethylenglycol, 20% glycerol, 50 mM sodium phosphate buffer, pH 7.4) at 4° C. until further use. For immunohistological staining, sections were rinsed in 1×PBS, incubated in blocking buffer (1×PBS containing 0.3% Triton X-100 and 10% normal goat serum) for 1 hr at room temperature and primary antibodies for GFAP (1:1000; Abcam) and Iba-1 (1:500; Abcam) were diluted in 1×PBS/0.3% triton X-100/5% normal goat serum and incubated over night at 4° C. Sections were washed with 1×PBS to wash off excessive primary antibodies, incubated with species specific peroxidase-coupled secondary antibodies (goat anti-mouse or goat anti-rabbit (1:300, Abcam)) diluted in 1×PBS/0.3% Triton X-100/5% normal goat serum and incubated for 1 h on a shaker at RT before developed with liquid diaminobezadine (DAB) (Dako, K3647). Sections were counterstained with matured hematoxylin, followed by dehydration in an ascending alcohol series before covered using Roti®-Histokitt II mounting medium. […] Fluorescence imaging was performed using an Olympus XM10 monochrome fluorescence CCD camera (Olympus, Germany).

Take `CC(=O)NCC(=O)N1CCC[C@H]1C(=O)N[C@@H](Cc1ccccc1)C(=O)N[C@@H](CC(C)C)C(=O)[C@@]1(C)CO1` [YU102]: the half-inhibitory concentration (IC50) in assay [1] is greater than 10 µM. In addition, the “cognitive deficits in the APPsw mice” value in assay [2] is reported as “ameliorates cognitive deficits”. Moreover, the Aβ deposition result in assay [3] is listed as “no difference in Aβ deposition”. Besides, in assay [4], the neuroprotective effects entry is reported as “no neuroprotective effects”. Besides, in the assay with COX-2, the COX-2 upregulation result was “significantly curtails COX-2 upregulation”.
